18 molecules from patent US5519024A, “Quinolonecarboxylic acid derivatives and their use” (Takeda Chemical Industries, Ltd., priority 1993, dated 1996) can be followed below.

This experiment deals with T1, GPIIb/IIIa (Homo sapiens, UniProt P05106+P08514).
T1 construct: Purification of GPIIb/IIIa from HEL cells; endogenous in cells; host or cells: HEL cells (HEL 92.1.7, ATCC TIB180); endogenous complex solubilized with Triton X-100 and purified in house
Nature of the experiment: Inhibitory activity against binding of GPIIb/IIIa and fibrinogen. Conditions: read-out: GPIIb/IIIa Fibrinogen Binding Inhibitory Activity. The procedure:
Test Example 1: Inhibitory activity against binding of GPIIb/IIIa and fibrinogen
(1) Cultivation of human erythroleukemia-derived cell line (hereinafter referred to as HEL cells)
HEL cells (HEl92.1.7; ATCC No. TIB180) were purchased from ATCC (Rockville, Md., U.S.A.). The medium was RPMI medium (GIBCO Laboratories, Grand Island, N..Y, U.S.A.) containing 40 mM N-2-hydroxyethylpiperazine-N'-2-ethanesulfonic acid (hereinafter referred to as HEPES) (pH 7.0), 0.2% NaHCO3, 100 μg/ml kanamycin and 10% FCS. The cells were cultured in the presence of 5% CO2 at 37° C., with the medium replaced with a fresh medium to obtain a 4- to 5-fold dilution at intervals of 3 to 4 days.
(2) Purification of GPIIb/IIIa from HEL cells
GPIIb/IIIa was purified by a modification of the method of L. A. Fitzgerald et al. [J. Biol. Chem., 262, 3936 (1987)] as follows: All purification was conducted at room temperature, unless otherwise stated. At 7 days of cultivation, cells were collected from the HEL cell culture broth (cell suspension) by centrifugation (1,000 ×g, 10 minutes, 4° C.). After washing with 20 mM Tris-HCl (pH 7.5) containing 1 mM EDTA and 150 mM NaCl, the cells were suspended in a solubilizing buffer (20 mM Tris-HCl, 150 mM NaCl, 1% Triton X-100, 1 mM MgCl2, 1 mM CaCl2, 0.1 mM (p-amidinophenyl)methanesulfonyl fluoride (hereinafter referred to as APMSF), 10 nM leupeptin, 0.02% NaN3, pH 7.4), followed by gentle stirring at 4° C. for 30 minutes, to solubilize the GPIIb/IIIa. The suspension was centrifuged (100,000 ×g, 1 hour) at 4° C., and the cell debris removed, to yield a cell extract. The cell extract was passed through a Heparin-Sepharose CL-6B column (Pharmacia LKB) and a DEAE-Toyopearl 650M column (Tosoh), both previously equilibrated with a column buffer (20 mM Tris-HCl, 150 mM NaCl, 0.1% Triton X-100, 1 mM MgCl2, 1 mM CaCl2, 0.1 mM APMSF, 1 nM leupeptin, 0.05% NaN3, pH 7.4). The effluent was applied to a ConA-Sepharose column (Pharmacia LKB), previously equilibrated with the same column buffer as above, to adsorb the GPIIb/IIIa, followed by elution with the same column buffer but containing 0.5M methyl α-D-mannopyranoside. The eluted fraction was concentrated at 4° C. using an ultrafiltration apparatus (Amicon Corporation the fraction's molecular weight of 10,000), after which it was subjected to gel filtration through a Sephacryl S-300 column (Pharmacia LKB), previously equilibrated with the same column buffer, to yield a purified standard sample.
(3) Biotinization of human fibrinogen
Conducted by the method of I. F. Charo [I. F. Charo et al., J. Biol. Chem., 266, 1415 (1991)].
Human fibrinogen (Kabi Vitrum AB) was dissolved in PBS to 5 mg/ml and then dialyzed at 4° C. against 0.1M carbonate buffer (pH 8.2) containing 0.1M NaCl. After dialysis, insoluble substances were removed by centrifugation (100,000 ×g, 30 minutes), and the dialyzate was diluted to 1 mg/ml with the same buffer. To this dilution, sulfo-N-hydroxysuccinimidebiotin (Pierce Chemical Co.) was added to a final concentration of 0.2 mg/ml, followed by gentle mixing at room temperature for 30 minutes, to biotinize the fibrinogen. After completion of the reaction, the mixture was dialyzed against 0.05M Tris-HCl buffer (pH 7.4) containing 0.1M NaCl and 0.05% NaN3.
(4) Determination of inhibitory activity against fibrinogen binding
Conducted by a modification of the method of I. F. Charo [I. F. Charo et al., J. Biol. Chem., 266, 1415 (1991)] as follows: The purified GPIIb/IIIa was diluted to 1 μg/ml with buffer A (20 mM Tris-HCl, 150 mM NaCl, 1 mM CaCl2, 0.02% NaN3, pH 7.4). A 100 μl aliquot of this dilution was dispensed to a 96-well microplate (Maxisorp, produced by Nunc), and the plate kept standing at 4° C., to adsorb the GPIIb/IIIa to the microplate. Next, 150 μl of buffer B (35 mg/ml BSA, 50 mM Tris-HCl, 100 mM NaCl, 2 mM CaCl2, 0.02% NaN3, pH 7.4) was added, followed by 2 hours of blocking at 30° C. […]

Counter-ions that a name gives are not always drawn. Like-named read-outs stand apart in the source and are kept apart here.

T1 sequence (P08514 32-887 limits assumed): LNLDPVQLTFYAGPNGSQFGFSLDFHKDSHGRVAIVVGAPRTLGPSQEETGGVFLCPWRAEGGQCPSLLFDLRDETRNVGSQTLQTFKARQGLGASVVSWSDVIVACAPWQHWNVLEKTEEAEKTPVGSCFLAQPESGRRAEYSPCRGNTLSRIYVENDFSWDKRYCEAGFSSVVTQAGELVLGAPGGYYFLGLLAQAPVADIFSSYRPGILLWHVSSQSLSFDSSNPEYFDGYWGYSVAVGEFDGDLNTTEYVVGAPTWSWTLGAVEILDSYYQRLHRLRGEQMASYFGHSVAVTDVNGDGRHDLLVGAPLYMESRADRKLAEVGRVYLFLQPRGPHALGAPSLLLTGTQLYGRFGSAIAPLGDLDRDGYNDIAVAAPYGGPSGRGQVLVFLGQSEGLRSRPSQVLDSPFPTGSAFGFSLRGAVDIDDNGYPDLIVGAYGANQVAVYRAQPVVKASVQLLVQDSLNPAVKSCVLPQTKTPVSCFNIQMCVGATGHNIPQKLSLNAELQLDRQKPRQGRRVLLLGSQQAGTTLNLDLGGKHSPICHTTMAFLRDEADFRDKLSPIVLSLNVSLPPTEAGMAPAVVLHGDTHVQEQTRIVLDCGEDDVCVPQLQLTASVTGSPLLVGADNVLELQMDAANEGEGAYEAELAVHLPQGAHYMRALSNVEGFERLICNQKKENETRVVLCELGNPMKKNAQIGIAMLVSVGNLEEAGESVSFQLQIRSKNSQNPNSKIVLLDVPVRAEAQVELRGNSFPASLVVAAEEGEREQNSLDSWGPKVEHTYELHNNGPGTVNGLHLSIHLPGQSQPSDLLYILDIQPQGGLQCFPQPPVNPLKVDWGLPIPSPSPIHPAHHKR
T1 sequence (P08514 891-1039 limits assumed): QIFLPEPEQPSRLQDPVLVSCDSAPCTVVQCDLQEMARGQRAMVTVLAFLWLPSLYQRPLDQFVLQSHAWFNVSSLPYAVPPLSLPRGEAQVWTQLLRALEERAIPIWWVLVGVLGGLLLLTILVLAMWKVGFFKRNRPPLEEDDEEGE
T1 sequence (P05106 27-788): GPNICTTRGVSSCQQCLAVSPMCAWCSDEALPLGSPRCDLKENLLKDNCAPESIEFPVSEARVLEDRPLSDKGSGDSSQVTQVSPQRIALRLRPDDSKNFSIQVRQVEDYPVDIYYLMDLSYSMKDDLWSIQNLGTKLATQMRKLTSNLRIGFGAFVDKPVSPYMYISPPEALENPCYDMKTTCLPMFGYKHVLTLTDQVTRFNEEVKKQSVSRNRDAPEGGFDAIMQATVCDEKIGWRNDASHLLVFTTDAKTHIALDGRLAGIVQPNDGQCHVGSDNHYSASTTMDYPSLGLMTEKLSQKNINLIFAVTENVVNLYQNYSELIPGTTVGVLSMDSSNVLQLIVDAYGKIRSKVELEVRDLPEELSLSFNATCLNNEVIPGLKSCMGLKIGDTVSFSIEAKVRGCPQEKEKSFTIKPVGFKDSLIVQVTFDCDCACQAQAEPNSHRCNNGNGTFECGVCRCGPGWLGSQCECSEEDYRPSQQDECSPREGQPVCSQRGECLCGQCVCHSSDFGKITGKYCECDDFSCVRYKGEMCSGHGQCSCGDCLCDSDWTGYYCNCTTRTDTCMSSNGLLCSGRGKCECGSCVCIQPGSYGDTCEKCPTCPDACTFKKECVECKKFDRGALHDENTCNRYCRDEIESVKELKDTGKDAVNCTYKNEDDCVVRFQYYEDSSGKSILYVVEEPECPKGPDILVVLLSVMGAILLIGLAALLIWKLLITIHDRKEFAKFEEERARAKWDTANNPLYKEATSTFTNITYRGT

For the molecule `O=C(O)c1cn(C2CC2)c2c(F)c(SC3CCNCC3)c(F)cc2c1=O` [Compound 19], the inhibition at 10 µM (Table 2, 10^-5 M) stood at 49.7%. The inhibition at 1 µM (Table 2, 10^-6 M) is 7%.

`CN1CCN(c2c(F)cc3c(=O)c(C(=O)O)cn(C4CN(C)C4)c3c2F)CC1` [Compound 16]: under “Table 2, 10^-5 M”, the inhibition at 10 µM worked out at 60.4%. The inhibition at 1 µM (Table 2, 10^-6 M) turned out to be 43.2%.

For the molecule `O=C(O)c1cn(C2CC2)c2c(F)c(N3CCN4CCC[C@@H]4C3)c(F)cc2c1=O` [Compound 31], the inhibition at 10 µM (Table 2, 10^-5 M) came out at 73%. Besides, the inhibition at 1 µM (Table 2, 10^-6 M) is 39.3%.

For the molecule `Cn1cc(C(=O)O)c(=O)c2cc(F)c(N3Cc4ccccc4C(N)C3)c(F)c21` (centres unmarked) [Compound 2], the inhibition at 10 µM (Table 2, 10^-5 M) was determined as 72.4%. Under “Table 2, 10^-6 M”, the inhibition at 1 µM was determined as 48.4%.

Regarding `CCn1cc(C(=O)O)c(=O)c2cc(F)c(N3CCNCC3)nc21` [Enoxacin, reference compound], the inhibition at 10 µM (Table 1, 1 × 10^-5 M) is 62%. In addition, the inhibition at 1 µM (Table 1, 1 × 10^-6 M) turned out to be 24.3%.

Turning to `O=C(O)c1cn(Cc2nccs2)c2c(F)c(N3CCC(C4CCNCC4)CC3)c(F)cc2c1=O` [Compound 68], under “Table 2, 10^-5 M”, the inhibition at 10 µM was 100%. Further, the inhibition at 1 µM (Table 2, 10^-6 M) is 100%.

As for `O=C(O)c1cn(Cc2nccs2)c2c(F)c(N3CCCNCC3)c(F)cc2c1=O` [Compound 61], the inhibition at 10 µM (Table 2, 10^-5 M) was 100%. Further, where the note is “Table 2, 10^-6 M”, the inhibition at 1 µM was 97.1%.

In the case of `O=C(O)c1cn(Cc2nccs2)c2c(F)c(N3CCNCC3)c(F)cc2c1=O` [Compound 59, 6,8-Difluoro-7-(1-piperazinyl)-1-(2-thiazolylmethyl)-1,4-dihydro-4-oxoquinoline-3-carboxylic acid hydrochloride], the inhibition at 10 µM (Table 2, 10^-5 M) worked out at 100%. The inhibition at 1 µM (Table 2, 10^-6 M) came to 100%.

Regarding `NC1CN(c2c(F)cc3c(=O)c(C(=O)O)cn(C4CC4)c3c2F)Cc2ccccc21` (centres unmarked) [Compound 35], the inhibition at 10 µM (Table 2, 10^-5 M) stood at 51.8%. In addition, where the note is “Table 2, 10^-6 M”, the inhibition at 1 µM was 21.5%.

Consider `NC(=O)c1ccc(-n2cc(C(=O)O)c(=O)c3cc(F)c(N4CCNCC4)c(F)c32)cc1` [Compound 49], for which, where the note is “Table 2, 10^-6 M”, the inhibition at 1 µM was found to be 30.5%.

Regarding `CN1CCN(c2c(F)cc3c(=O)c(C(=O)O)cn(CCF)c3c2F)CC1` [Compound 7], the inhibition at 10 µM (Table 2, 10^-5 M) was found to be 91%. The inhibition at 1 µM (Table 2, 10^-6 M) was found to be 62.1%.

`NC(=O)CCCNc1c(F)cc2c(=O)c(C(=O)O)cn(C3CC3)c2c1F` [Compound 41]: where the note is “Table 2, 10^-5 M”, the inhibition at 10 µM came out at 58.8%. Moreover, the inhibition at 1 µM (Table 2, 10^-6 M) was found to be 17.9%.

As to `COc1ccccc1Cn1cc(C(=O)O)c(=O)c2cc(F)c(N3CCNCC3)c(F)c21` [Compound 76, 6,8-Difluoro-1-(2-methoxybenzyl)-7-(1-piperazinyl)-1,4-dihydro-4-oxoquinoline-3-carboxylic acid], the inhibition at 10 µM (Table 2, 10^-5 M) is 100%. Further, the inhibition at 1 µM (Table 2, 10^-6 M) is 83.1%.

On to `O=C(O)c1cn(CCO)c2c(F)c(N3CCn4ccnc4C3)c(F)cc2c1=O` [Compound 10, 1-(2-Hydroxyethyl)-6,8-difluoro-7-(5,6,7,8-tetrahydroimidazo[1,2-a]pyrazin-7-yl)-1,4-dihydro-4-oxoquinoline-3-carboxylic acid], for which, for the setting “Table 2, 10^-5 M”, the inhibition at 10 µM came to 91.3%. Also, for the setting “Table 2, 10^-6 M”, the inhibition at 1 µM was 72.9%.

Turning to `O=C(O)c1cn(Cc2ccc(Cl)cc2)c2c(F)c(N3CCNCC3)c(F)cc2c1=O` [Compound 74, 1-(4-Chlorobenzyl)-6,8-difluoro-7-(1-piperazinyl)-1,4-dihydro-4-oxoquinoline-3-carboxylic acid], the inhibition at 10 µM (Table 2, 10^-5 M) was 58.5%. For the same molecule, the inhibition at 1 µM (Table 2, 10^-6 M) was 26.1%.

`O=C(O)c1cn(C2CC2)c2c(F)c(N3CCn4ccnc4C3)c(F)cc2c1=O` [Compound 18]: the inhibition at 10 µM (Table 2, 10^-5 M) was 42.6%. Where the note is “Table 2, 10^-6 M”, the inhibition at 1 µM worked out at 30.5%.

Take `CN(C)CCCNc1c(F)cc2c(=O)c(C(=O)O)cn(Cc3nccs3)c2c1F` [Compound 60]: the inhibition at 10 µM (Table 2, 10^-5 M) was determined as 100%. The inhibition at 1 µM (Table 2, 10^-6 M) amounted to 95%.

Regarding `O=C(O)c1cn(Cc2nccs2)c2cc(N3CCC(C4CCNCC4)CC3)ccc2c1=O` [Compound 58, 7-[4-(4-Piperidinyl)piperidin-1-yl]-1-(2-thiazolylmethyl)-1,4-dihydro-4-oxoquinoline-3-carboxylic acid], the inhibition at 10 µM (Table 2, 10^-5 M) worked out at 100%. In addition, the inhibition at 1 µM (Table 2, 10^-6 M) came out at 100%.
